From the NIST ThermoML archive (doi:10.1016/j.tca.2008.03.009)
± gives the expanded uncertainty stated by the source.

Test: molar heat capacity at constant pressure
Settings: 328.1 K; 101.33 kPa; Crystal; Small sample (50 mg) DSC

[BH4-].[Na+] [sodium tetrahydroborate]
molar heat capacity at constant pressure: 111.61 ± 2.3 J/K/mol
